Drawing on US20260347361A1, “LRRK2 INHIBITORS AND USES THEREOF” (NEURON23, INC, priority 2022, published 2026), this text covers IC50 for 29 compounds.

The pIC50 is the negative decadic logarithm of the IC50, by convention in mol/L.

pIC50: −log10 of the molar value.

In this test the target is T1, wt human LRRK2 (Homo sapiens, UniProt Q5S007).
T1 construct: wt human LRRK2, catalytic site, catalytic site (ThermoFisher/USA); purchased ThermoFisher
T1 sequence (Q5S007 970-2527 limits assumed): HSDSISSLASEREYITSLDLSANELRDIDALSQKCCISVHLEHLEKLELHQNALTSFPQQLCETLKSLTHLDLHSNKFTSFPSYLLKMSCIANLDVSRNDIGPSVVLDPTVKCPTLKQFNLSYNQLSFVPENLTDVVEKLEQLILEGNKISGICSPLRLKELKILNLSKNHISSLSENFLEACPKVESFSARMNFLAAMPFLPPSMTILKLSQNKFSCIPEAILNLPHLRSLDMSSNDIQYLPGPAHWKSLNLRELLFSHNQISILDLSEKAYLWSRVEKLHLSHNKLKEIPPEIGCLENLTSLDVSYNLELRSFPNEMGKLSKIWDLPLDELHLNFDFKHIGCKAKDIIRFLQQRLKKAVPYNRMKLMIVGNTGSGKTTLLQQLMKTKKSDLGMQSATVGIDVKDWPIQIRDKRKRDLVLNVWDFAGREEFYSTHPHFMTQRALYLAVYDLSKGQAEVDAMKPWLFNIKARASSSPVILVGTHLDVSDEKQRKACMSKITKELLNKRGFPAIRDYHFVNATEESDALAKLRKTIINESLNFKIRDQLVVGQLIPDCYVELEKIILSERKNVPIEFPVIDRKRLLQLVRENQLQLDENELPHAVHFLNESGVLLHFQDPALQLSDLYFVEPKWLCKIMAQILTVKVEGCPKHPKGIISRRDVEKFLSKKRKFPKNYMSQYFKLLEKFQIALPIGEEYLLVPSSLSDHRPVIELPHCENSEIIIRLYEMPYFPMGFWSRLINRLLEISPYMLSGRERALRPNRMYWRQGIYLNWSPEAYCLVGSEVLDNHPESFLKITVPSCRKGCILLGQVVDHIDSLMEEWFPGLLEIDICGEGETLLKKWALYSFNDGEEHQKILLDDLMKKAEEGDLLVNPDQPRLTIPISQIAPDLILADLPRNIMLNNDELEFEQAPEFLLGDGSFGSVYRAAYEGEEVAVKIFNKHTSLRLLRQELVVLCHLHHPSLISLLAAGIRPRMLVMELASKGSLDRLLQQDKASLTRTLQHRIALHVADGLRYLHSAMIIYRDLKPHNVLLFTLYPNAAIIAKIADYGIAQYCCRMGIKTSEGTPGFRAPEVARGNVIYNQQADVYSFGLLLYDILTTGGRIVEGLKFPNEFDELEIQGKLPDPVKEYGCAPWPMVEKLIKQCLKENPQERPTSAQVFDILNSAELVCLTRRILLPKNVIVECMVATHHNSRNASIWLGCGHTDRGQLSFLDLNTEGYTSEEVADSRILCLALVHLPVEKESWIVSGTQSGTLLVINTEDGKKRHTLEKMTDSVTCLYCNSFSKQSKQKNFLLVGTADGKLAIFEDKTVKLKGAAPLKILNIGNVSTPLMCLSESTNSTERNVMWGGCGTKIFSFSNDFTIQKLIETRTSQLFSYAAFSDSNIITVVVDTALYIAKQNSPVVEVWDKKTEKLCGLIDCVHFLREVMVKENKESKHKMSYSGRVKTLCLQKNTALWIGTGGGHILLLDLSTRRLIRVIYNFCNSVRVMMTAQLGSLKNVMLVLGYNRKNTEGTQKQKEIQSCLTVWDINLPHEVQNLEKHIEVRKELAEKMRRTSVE
The experiment in a line: TR-FRET LanthaScreen Tb Kinase Activity Assay, inhibition of LRRK2 kinase. To be noted: 2 nM wt human LRRK2, 400 nM fluorescein-ERM (LRRKtide) peptide, 38 µM ATP, 15 min pre-incubation, 120 min at room temperature. In kind it is biochemical. The procedure: In Table 2, activity is provided as the following: “+++”=IC50 less than 50 nM; “++”=IC50 between 50 nM and 200 nM; “+”=IC50> or =200 nM.
The compounds listed in Table 2 were tested for their inhibitory effect on LRRK2 kinase according to the following procedures.
The protocol for basic TR-FRET LanthaScreen Tb Kinase Activity Assay inhibitor studies were as follows. LanthaScreen Kinase Activity Assays (ThermoFisher/USA) to evaluate inhibitors were performed by addition of 100 nl of test compound in corresponding DMSO dilutions/5 μl of kinase/fluorescein-ERM(LRRKtide) peptide mixture, Compound & kinase were pre-incubated for 15 minutes, then 5 μl of ATP into 384 well small volume plates. After incubation for 120 minutes at room temperature, the detection reagents containing Tb-anti-pLRRKtide antibody were added to monitor phosphorylation level of peptide. Then, after 60 min minutes incubation at room temperature plates were read in Envision. Data analysis of emission ratios was according to LanthaScreen Tb Kinase Activity Assay protocol.
Kinase and assay components were adjusted to final concentrations according to the kit protocol. For LRRK2: 2 nM wt human LRRK2, catalytic site, catalytic site (ThermoFisher/USA), 400 nM peptide, 38 µM ATP in 1× Kinase Buffer A.
Basic protocol for TR-FRET LanthaScreen Tb Kinase Activity Assay inhibitor studies involved two steps:
Enzymatic step: Addition of […] of test compound in corresponding DMSO dilutions, 5 μL of kinase/substrate mixture, 5 μL of ATP into 384 well small volume plates. Incubation for 120 minutes at room temperature.
Detection step: Addition of 10 μL EDTA & antibody, read plate after 60 minutes. Data analysis of emission ratios according to KinEASE assay protocol.
Kinase and assay components were adjusted to final concentrations according to the kit protocol.
`O=S1(=O)CCN(c2ccc3c(c2)-n2ncc(Cl)c2N=C(c2c(F)cccc2F)N3)CC1` had a pIC50 of more than 7.30.

Compound `Fc1cccc(F)c1C1=Nc2c(Cl)cnn2-c2cc(-c3cn[nH]c3)ccc2N1` gave a pIC50 of more than 7.30.

`CC(C)S(=O)(=O)NC(=O)c1ccc2c(c1)-n1ncc(Cl)c1N=C(c1c(F)cccc1F)N2` showed a pIC50 of less than 6.70.

On to `Fc1cccc(F)c1C1=Nc2c(Cl)cnn2-c2cc(N3CCOCC3)cnc2N1`, for which the pIC50 was more than 7.30.

`OC1CCN(c2ccc3c(c2)-n2ncc(Cl)c2N=C(c2c(F)cccc2F)N3)C1` (racemic) [1-[3-chloro-5-(2,6-difluorophenyl)-6H-pyrazolo[1,5-a][1,3,5]benzotriazepin-9-yl]pyrrolidin-3-ol] gave a pIC50 of more than 7.30.

`COC1CCN(c2ccc3c(c2)-n2ncc(Cl)c2N=C(c2c(F)cccc2F)N3)C1` (racemic) [3-chloro-5-(2,6-difluorophenyl)-9-(3-methoxypyrrolidin-1-yl)-6H-pyrazolo[1,5-a][1,3,5]benzotriazepine] had a pIC50 of more than 7.30.

On to `Fc1cccc(F)c1C1=Nc2c(Cl)cnn2-c2cc(N3CC4CC3CO4)ccc2N1` (racemic) [5-(3-chloro-5-(2,6-difluorophenyl)-6H-benzo[f]pyrazolo[1,5-a][1,3,5]triazepin-9-yl)-2-oxa-5-azabicyclo[2.2.1]heptane], for which the pIC50 is more than 7.30.

Turning to `Fc1cccc(F)c1C1=Nc2c(Cl)cnn2-c2cc(N3CCC34COC4)ccc2N1` [1-[3-chloro-5-(2,6-difluorophenyl)-6H-pyrazolo[1,5-a][1,3,5]benzotriazepin-9-yl]-6-oxa-1-azaspiro[3.3]heptane], the negative logarithm of the IC50 (pIC50) is more than 7.30.

Compound `Fc1cccc(F)c1C1=Nc2c(Cl)cnn2-c2cc(N3CC4CCC(C3)O4)ncc2N1` [3-(3-Chloro-5-(2,6-difluorophenyl)-6H-pyrazolo[1,5-a]pyrido[3,4-f][1,3,5]triazepin-9-yl)-8-oxa-3-azabicyclo[3.2.1]octane] showed a pIC50 of more than 7.30.

As for `Fc1cccc(F)c1C1=Nc2c(Cl)cnn2-c2cc(N3CC4CC(C3)O4)ccc2N1` [3-[3-chloro-5-(2,6-difluorophenyl)-6H-pyrazolo [1,5-a][1,3,5]benzotriazepin-9-yl]-6-oxa-3-azabicyclo [3.1.1]heptane], the pIC50 was more than 7.30.

In turn, `O=C(NO)c1ccc2c(c1)-n1ncc(Cl)c1N=C(c1c(F)cccc1F)N2` [3-chloro-5-(2,6-difluorophenyl)-6H-pyrazolo[1,5-a][1,3,5]benzotriazepine-9-carbohydroxamic acid] showed a pIC50 of more than 7.30.

In turn, `NC(=O)c1ccc2c(c1)-n1ncc(Cl)c1N=C(c1c(F)cccc1F)N2` [3-chloro-5-(2,6-difluorophenyl)-6H-pyrazolo[1,5-a][1,3,5]benzotriazepine-9-carboxamide] had a pIC50 of more than 7.30.

In the case of `Cn1cc(-c2ccc3c(c2)-n2ncc(Cl)c2N=C(c2c(F)cccc2F)N3)cn1` [3-chloro-5-(2,6-difluorophenyl)-9-(1-methylpyrazol-4-yl)-6H-pyrazolo[1,5-a][1,3,5]benzotriazepine], the pIC50 was more than 7.30.

Compound `Fc1cccc(F)c1C1=Nc2c(Cl)cnn2-c2cc(N3CCC(F)(F)C3)ccc2N1` [3-chloro-5-(2,6-difluorophenyl)-9-(3,3-difluoropyrrolidin-1-yl)-6H-pyrazolo[1,5-a][1,3,5]benzotriazepine] showed a pIC50 of more than 7.30.

Regarding `Fc1cccc(F)c1C1=Nc2c(Cl)cnn2-c2cc(N3CC(F)C3)ccc2N1` [3-chloro-5-(2,6-difluorophenyl)-9-(3-fluoroazetidin-1-yl)-6H-pyrazolo[1,5-a][1,3,5]benzotriazepine], the pIC50 was more than 7.30.

Turning to `COC1CN(c2ccc3c(c2)-n2ncc(Cl)c2N=C(c2c(F)cccc2F)N3)C1` [3-chloro-5-(2,6-difluorophenyl)-9-(3-methoxyazetidin-1-yl)-6H-pyrazolo[1,5-a][1,3,5]benzotriazepine], the pIC50 is more than 7.30.

For the compound `CN1CCN(c2ccc3c(c2)-n2ncc(Cl)c2N=C(c2c(F)cccc2F)N3)CC1` [3-chloro-5-(2,6-difluorophenyl)-9-(4-methylpiperazin-1-yl)-6H-pyrazolo[1,5-a][1,3,5]benzotriazepine], the pIC50 is more than 7.30.

In turn, `Fc1cccc(F)c1C1=Nc2c(Cl)cnn2-c2cc(N3CC4(CC(F)C4)C3)ccc2N1` [3-chloro-5-(2,6-difluorophenyl)-9-(6-fluoro-2-azaspiro[3.3]heptan-2-yl)-6H-pyrazolo[1,5-a][1,3,5]benzotriazepine] showed a pIC50 of more than 7.30.

Compound `Fc1cccc(F)c1C1=Nc2c(Cl)cnn2-c2cc(N3CCCC3)ccc2N1` [3-chloro-5-(2,6-difluorophenyl)-9-(pyrrolidin-1-yl)-6H-benzo[f]pyrazolo[1,5-a][1,3,5]triazepine] showed a pIC50 of more than 7.30.

`Fc1cccc(F)c1C1=Nc2c(Cl)cnn2-c2cc(N3CC[C@@H](F)C3)ccc2N1` [3-chloro-5-(2,6-difluorophenyl)-9-[(3R)-3-fluoropyrrolidin-1-yl]-6H-pyrazolo[1,5-a][1,3,5]benzotriazepine] had a pIC50 of more than 7.30.

For the compound `Fc1cccc(F)c1C1=Nc2c(Cl)cnn2-c2cc(N3CC[C@H](F)C3)ccc2N1` [3-chloro-5-(2,6-difluorophenyl)-9-[(3S)-3-fluoropyrrolidin-1-yl]-6H-pyrazolo[1,5-a][1,3,5]benzotriazepine], the pIC50 was more than 7.30.

Turning to `Fc1cccc(F)c1C1=Nc2c(Cl)cnn2-c2cc(N3CCNCC3)ccc2N1` [3-chloro-5-(2,6-difluorophenyl)-9-piperazin-1-yl-6H-pyrazolo[1,5-a][1,3,5]benzotriazepine], the pIC50 is more than 7.30.

Compound `CN(C)C(=O)c1ccc2c(c1)-n1ncc(Cl)c1N=C(c1c(F)cccc1F)N2` [3-chloro-5-(2,6-difluorophenyl)-N,N-dimethyl-6H-pyrazolo[1,5-a][1,3,5]benzotriazepine-9-carboxamide] showed a pIC50 of 6.70 to 7.30.

`O=C(NCCF)c1ccc2c(c1)-n1ncc(Cl)c1N=C(c1c(F)cccc1F)N2` [3-chloro-5-(2,6-difluorophenyl)-N-(2-fluoroethyl)-6H-pyrazolo[1,5-a][1,3,5]benzotriazepine-9-carboxamide]: the pIC50 is more than 7.30.

In the case of `O=C(NCCO)c1ccc2c(c1)-n1ncc(Cl)c1N=C(c1c(F)cccc1F)N2` [3-chloro-5-(2,6-difluorophenyl)-N-(2-hydroxyethyl)-6H-pyrazolo[1,5-a][1,3,5]benzotriazepine-9-carboxamide], the negative logarithm of the IC50 (pIC50) was more than 7.30.

In turn, `COCCNC(=O)c1ccc2c(c1)-n1ncc(Cl)c1N=C(c1c(F)cccc1F)N2` [3-chloro-5-(2,6-difluorophenyl)-N-(2-methoxyethyl)-6H-pyrazolo[1,5-a][1,3,5]benzotriazepine-9-carboxamide] had a pIC50 of more than 7.30.

On to `O=C(NC1COC1)c1ccc2c(c1)-n1ncc(Cl)c1N=C(c1c(F)cccc1F)N2` [3-chloro-5-(2,6-difluorophenyl)-N-(oxetan-3-yl)-6H-benzo[f]pyrazolo[1,5-a][1,3,5]triazepine-9-carboxamide], for which the negative logarithm of the IC50 (pIC50) was more than 7.30.

As for `CC(C)NC(=O)c1ccc2c(c1)-n1ncc(Cl)c1N=C(c1c(F)cccc1F)N2` [3-chloro-5-(2,6-difluorophenyl)-N-isopropyl-6H-pyrazolo[1,5-a][1,3,5]benzotriazepine-9-carboxamide], the pIC50 is more than 7.30.

As to `CONC(=O)c1ccc2c(c1)-n1ncc(Cl)c1N=C(c1c(F)cccc1F)N2` [3-chloro-5-(2,6-difluorophenyl)-N-methoxy-6H-pyrazolo[1,5-a][1,3,5]benzotriazepine-9-carboxamide], the pIC50 was more than 7.30.
